The subject of one test is ECHOR. Kind of test: In-water applied, transplanted paddy rice weeds (Example II). Format: in vivo, Echinochloa oryzoides (Ard.) Fritsch. On the procedure: Weed seeds or nutlets of the desired test plant species were planted in puddled soil (mud) prepared by mixing a shredded, non-sterilized mineral soil (50.5 percent silt, 25.5 percent clay, and 24 percent sand, with a pH of about 7.6 and an organic matter content of about 2.9 percent) and water at a 1:1 volumetric ratio. The prepared mud was dispensed in 365 mL aliquots into 16-ounce (oz.) non-perforated plastic pots with a surface area of 86.59 square centimeters (cm^2) leaving a headspace of 3 centimeters (cm) in each pot. Mud was allowed to dry overnight prior to planting or transplanting. Rice seeds were planted in Sun Gro MetroMix® 306 planting mixture, which typically has a pH of about 6.0 to about 6.8 and an organic matter content of about 30 percent, in plastic plug trays. Seedlings at the second or third leaf stage of growth were transplanted into 860 mL of mud contained in 32-oz. non-perforated plastic pots with a surface area of 86.59 cm^2 4 days prior to herbicide application. The paddy was created by filling the headspace of the pots with 2.5 to 3 cm of water. When required to ensure good germination and healthy plants, a fungicide treatment and/or other chemical or physical treatment was applied. The plants were grown for 4-22 days in a greenhouse with an approximate 14 h photoperiod which was maintained at about 29° C. during the day and about 26° C. during the night. Nutrients were added as Osmocote® (19:6:12, N:P:K+minor nutrients) at 2 g per 16-oz. pot and 4 g per 32-oz. pot. Water was added on a regular basis to maintain the paddy flood, and supplemental lighting was provided with overhead metal halide 1000-Watt lamps as necessary. The plants were employed for testing when they reached the first through fourth true leaf stage.
Treatments consisted of the acid or esters of 4-amino-3-chloro-5-fluoro-6-(4-chloro-2-fluoro-3-methoxy-phenyl)pyridine-2-carboxylic acid (compound A) each formulated as an SC and various herbicidal components alone and in combination. Forms of compound A were applied on an acid equivalent basis.
Other herbicidal components were applied on an acid equivalent basis and included the acetolactate synthase (ALS)-inhibiting imidazolinone herbicides imazethapyr ammonium salt formulated as Newpath®, imazamox ammonium salt formulated as Beyond®, imazapic ammonium salt formulated as Plateau®, imazapyr isopropylamine salt formulated as Arsenal®, imazamethabenz-methyl (technical material), and imazaquin isopropylamine salt formulated as Scepter®.
Treatment requirements for each compound or herbicidal component were calculated based upon the rates being tested, the concentration of active ingredient or acid equivalent in the formulation, an application volume of 2 mL per component per pot, and an application area of 86.59 cm^2 per pot.
For formulated compounds, a measured amount was placed in an individual 100 or 200 mL glass vial and was dissolved in a volume of 1.25% (v/v) Agri-Dex® crop oil concentrate to obtain application solutions.
For technical grade compounds, a weighed amount was placed in an individual 100 to 200 mL glass vial and was dissolved in a volume of acetone to obtain concentrated stock solutions. […] The concentrated stock solutions obtained were diluted with an equivalent volume of an aqueous mixture containing 2.5% (v/v) crop oil concentrate so that the final application solutions contained 1.25% (v/v) crop oil concentrate.
Applications were made by injecting with a pipetter appropriate amounts of the application solutions, individually and sequentially, into the aqueous layer of the paddy. Control plants were treated in the same manner with the solvent blank. Applications were made so that all treated plant material received the same concentrations of acetone and crop oil concentrate.
The treated plants and control plants were placed in a greenhouse as described above and water was added as needed to maintain a paddy flood. […]

The test system of the next test is CYPIR. As to the kind of experiment: Postemergence foliar-applied, direct seeded rice weeds (Example I). Format: in vivo, Cyperus iria L. The source says: Seeds or nutlets of the desired test plant species were planted in a soil matrix prepared by mixing a loam or sandy loam soil (e.g., 28.6 percent silt, 18.8 percent clay, and 52.6 percent sand, with a pH of about 5.8 and an organic matter content of about 1.8 percent) and calcareous grit in an 80 to 20 ratio. The soil matrix was contained in plastic pots with a volume of 1 quart and a surface area of 83.6 cm^2. When required to ensure good germination and healthy plants, a fungicide treatment and/or other chemical or physical treatment was applied. The plants were grown for 8-22 days in a greenhouse with an approximate 14 h photoperiod which was maintained at about 29° C. during the day and 26° C. during the night. Nutrients (Peters Excel® 15-5-15 5-Ca 2-Mg and iron chelate) were applied in the irrigation solution as needed and water was added on a regular basis. Supplemental lighting was provided with overhead metal halide 1000-Watt lamps as necessary. The plants were employed for testing when they reached the first through fourth true leaf stage.
Treatments consisted of the acid or esters of 4-amino-3-chloro-5-fluoro-6-(4-chloro-2-fluoro-3-methoxy-phenyl)pyridine-2-carboxylic acid (Compound A), each formulated as an SC (suspension concentrate), and various herbicidal components alone and in combination. Forms of compound A were applied on an acid equivalent basis.
Other herbicidal components were applied on an acid equivalent basis and include acetolactate synthase (ALS)-inhibiting herbicides (imidazolinone chemical class) imazethapyr ammonium salt formulated as Newpath®, imazamox ammonium salt formulated as Beyond®, imazapic ammonium salt formulated as Plateau®, imazapyr isopropylamine salt formulated as Arsenal®, imazamethabenz-methyl (technical material) and imazaquin isopropylamine salt formulated as Scepter®/Imagine®.
Treatment requirements were calculated based upon the rates being tested, the concentration of active ingredient or acid equivalent in the formulation, and a 12 mL application volume at a rate of 187 L/ha.
For treatments comprised of formulated compounds, measured amounts of compounds were placed individually in 25 mL glass vials and diluted in a volume of 1.25% (v/v) Agri-Dex® crop oil concentrated to obtain 12× stock solutions. […] Application solutions were prepared by adding an appropriate amount of each stock solution (e.g., 1 mL) and diluted to the appropriate final concentrations with the addition of 10 mL of an aqueous mixture of 1.25% (v/v) crop oil concentrate so that the final spray solutions contained 1.25+/−0.05% (v/v) crop oil concentrate.
For treatments comprised of technical compounds, weighed amounts can be placed individually in 25 mL glass vials and dissolved in a volume of 97:3 v/v acetone/DMSO to obtain 12× stock solutions. […] Application solutions can be prepared by adding an appropriate amount of each stock solution (e.g., 1 mL) and diluted to the appropriate final concentrations with the addition of 10 mL of an aqueous mixture of 1.5% (v/v) crop oil concentrate so that the final spray solutions contain 1.25% (v/v) crop oil concentrate. When technical materials are used, the concentrated stock solutions can be added to the spray solutions so that the final acetone and DMSO concentrations of the application solutions are 16.2% and 0.5%, respectively.
For treatments comprised of formulated and technical compounds, weighed amounts of the technical materials were placed individually in 25 mL glass vials and dissolved in a volume of 97:3 v/v acetone/DMSO to obtain 12× stock solutions, and measured amounts of the formulated compounds were placed individually in 25 mL glass vials and diluted in a volume of 1.5% (v/v) crop oil concentrate or water to obtain 12× stock solutions. […]

The mark [1] stands for this setting: Compound A Benzyl Ester 8.75 gae/ha.

The structures appear in SMILES notation. Where “and” joins values, the source holds several entries; their conditions need not be identical. Equal entries are not always repeated.

With `COc1c(Cl)ccc(-c2nc(C(=O)O)c(Cl)c(N)c2F)c1F` [Compound A Acid, 4-amino-3-chloro-6-(4-chloro-2-fluoro-3-methoxyphenyl)-5-fluoropyridine-2-carboxylic acid], the “Visual Weed Control (%) - 25 DAA CHOR Obs” value in the test on ECHOR (Compound A Acid 8.75 gae/ha) is 0%; in the test with ECHOR (Compound A Acid 17.5 gae/ha) it was 0%; in the test on ECHOR (Compound A Acid 35 gae/ha) it was 10%. Besides, the results for the “Visual Weed Control (%) - 25 DAA ECHOR Obs” value in the test on ECHOR (Compound A Acid 8.75 gae/ha), in the test on ECHOR (Compound A Acid 17.5 gae/ha) and in the test with ECHOR (Compound A Acid 35 gae/ha) were 0%, 0% and 10%, respectively. Also, the “Visual Weed Control (%) - 22 DAA ECHOR Obs” value was determined as 15% with ECHOR (Compound A Acid 10.6 gae/ha) and 40% in the test on ECHOR (Compound A Acid 42.4 gae/ha). The “Visual Weed Control (%) - 19 DAA ECHOR Obs” value in the test on ECHOR (Compound A Acid 42 gae/ha) is given as 15%.
On to `Cc1cnc(C2=NC(C)(C(C)C)C(=O)N2)c(C(=O)O)c1.N` (racemic) [Imazapic ammonium, ammonium (±)-2-[4,5-dihydro-4-methyl-4-(1-methylethyl)-5-oxo-1H-imidazol-2-yl]-5-methyl-3-pyridinecarboxylic acid], for which, in the test on CYPIR (Imazapic ammonium 7 gae/ha), the “Visual Weed Control (%) - 22 DAA CYPIR Obs” value was determined as 20%. For the same molecule, the “Visual Weed Control (%) - 25 DAA ECHOR Obs” value with ECHOR (Imazapic ammonium 4.38 gae/ha), in the test on ECHOR (Imazapic ammonium 8.75 gae/ha) and with ECHOR (Imazapic ammonium 17.5 gae/ha) was 0% each time. Besides, the “Visual Weed Control (%) - 25 DAA CHOR Obs” value in the test with ECHOR (Imazapic ammonium 17.5 gae/ha) came to 0%. Further, in the test with ECHOR (Imazapic ammonium 35 gae/ha), the “Visual Weed Control (%) - 19 DAA ECHOR Obs” value stood at 78%.
`COc1c(Cl)ccc(-c2nc(C(=O)OCc3ccccc3)c(Cl)c(N)c2F)c1F` [Compound A Benzyl Ester, benzyl ester of 4-amino-3-chloro-5-fluoro-6-(4-chloro-2-fluoro-3-methoxy-phenyl)pyridine-2-carboxylic acid]: the “Visual Weed Control (%) - 22 DAA CYPIR Obs” value in the test with CYPIR (Compound A Benzyl Ester 8 gae/ha) is 20% and 30%; in the test on CYPIR (Compound A Benzyl Ester 16 gae/ha) it was 85%. For the same molecule, the “Visual Weed Control (%) - 25 DAA CYPIR Obs” value in the test with CYPIR (setting [1]) was 75%. Besides, the “Visual Weed Control (%) - 25 DAA ECHOR Obs” value with ECHOR (setting [1]) is on record as 0%. In the test on ECHOR (Compound A Benzyl Ester 17.5 gae/ha), the “Visual Weed Control (%) - 22 DAA ECHOR Obs” value was 30%.
As to `CCc1cnc(C2=NC(C)(C(C)C)C(=O)N2)c(C(=O)O)c1.N` (racemic) [Imazethapyr ammonium, ammonium (±)-2-[4,5-dihydro-4-methyl-4-(1-methylethyl)-5-oxo-1H-imidazol-2-yl]-5-ethyl-3-pyridinecarboxylate], the “Visual Weed Control (%) - 25 DAA ECHOR Obs” value is 0% in the test with ECHOR (Imazethapyr ammonium 8.75 gae/ha), 0% in the test with ECHOR (Imazethapyr ammonium 17.5 gae/ha) and 25% in the test on ECHOR (Imazethapyr ammonium 35 gae/ha).
Regarding `COCc1cnc(C2=NC(C)(C(C)C)C(=O)N2)c(C(=O)O)c1.N` (racemic) [Imazamox ammonium, ammonium (±)-2-[4,5-dihydro-4-methyl-4-(1-methylethyl)-5-oxo-1H-imidazol-2-yl]-5-(methoxymethyl)-3-pyridinecarboxylate], the “Visual Weed Control (%) - 25 DAA CYPIR Obs” value in the test with CYPIR (Imazamox ammonium 11.2 gae/ha) was 20%; in the test on CYPIR (Imazamox ammonium 22.4 gae/ha), 70%. Besides, the “Visual Weed Control (%) - 25 DAA ECHOR Obs” value in the test with ECHOR (Imazamox ammonium 5.6 gae/ha), in the test with ECHOR (Imazamox ammonium 11.2 gae/ha) and in the test on ECHOR (Imazamox ammonium 22.4 gae/ha) was 0% throughout.

For the origin of these results see patent US8906826B2, “Herbicidal compositions comprising 4-amino-3-chloro-5-fluoro-6-(4-chloro-2-fluoro-3-methoxyphenyl) pyridine-2-carboxylic acid or a derivative thereof and imidazolinones” (Dow AgroSciences, LLC, priority 2012, dated 2014).
